According to patent US12180187B2, “1-phenyl-5-azinylpyrazolyl-3-oxyalkyl acids and their use for controlling unwanted plant growth” (BAYER AKTIENGESELLSCHAFT, priority 2019, dated 2024):

Tests used:
[1] = system: ECHCG; experiment: Pre-emergence action against ECHCG, 1280 g/ha; format: in vivo, Echinochloa crus-galli; details: visual scoring after about 3 weeks vs untreated controls, 100% = plants have died, 0% = like control plants; for pest or weed control at 1280 g/ha: Echinochloa crus-galli, 504 h
How it was run: (§1)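 Sandy loam pots, seeds covered with soil; aqueous WP/EC spray on covering soil, 0.5% additive, 600 L/ha. Greenhouse growth, good conditions. Readout: visual % activity at ~3 weeks (0% = like control, 100% = dead).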

[2] = system: POAAN; experiment: Pre-emergence action against POAAN, 1280 g/ha; format: in vivo, Poa annua; details: visual scoring after about 3 weeks vs untreated controls, 100% = plants have died, 0% = like control plants; for pest or weed control at 1280 g/ha: Poa annua, 504 h
How it was run: as §1

[3] = system: SETVI; experiment: Pre-emergence action against SETVI, 1280 g/ha; format: in vivo, Setaria viridis; details: visual scoring after about 3 weeks vs untreated controls, 100% = plants have died, 0% = like control plants; for pest or weed control at 1280 g/ha: Setaria viridis, 504 h
How it was run: as §1

[4] = system: AMARE; experiment: Pre-emergence action against AMARE, 1280 g/ha; format: in vivo, Amaranthus retroflexus; details: scored visually after about 3 weeks vs untreated controls (100% = plants have died); for pest or weed control at 1280 g/ha: Amaranthus retroflexus, 504 h
How it was run: as §1

[5] = system: MATIN; experiment: Pre-emergence action against MATIN, 1280 g/ha; format: in vivo, Tripleurospermum inodorum (Matricaria inodora); details: scored visually after about 3 weeks vs untreated controls (100% = plants have died); for pest or weed control at 1280 g/ha: Tripleurospermum inodorum, 504 h
How it was run: as §1

[6] = system: STEME; experiment: Pre-emergence action against STEME, 1280 g/ha; format: in vivo, Stellaria media; details: scored visually after about 3 weeks vs untreated controls (100% = plants have died); for pest or weed control at 1280 g/ha: Stellaria media, 504 h
How it was run: as §1

[7] = system: ALOMY; experiment: Pre-emergence action at 320 g/ha against ALOMY; format: in vivo, Alopecurus myosuroides; details: scored visually after about 3 weeks vs untreated controls (100% = plants have died); for pest or weed control at 320 g/ha: Alopecurus myosuroides, 504 h
How it was run: (§2)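 WP/EC formulations applied pre-emergence to covering soil, water rate 600 l/ha, 0.5% additive. Greenhouse, ~3 weeks. Visual % damage vs untreated (0–100%).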

[8] = system: AVEFA; experiment: Pre-emergence action at 320 g/ha against AVEFA; format: in vivo; details: visual scoring after about 3 weeks vs untreated controls; for pest or weed control at 320 g/ha: Avena fatua, 504 h
How it was run: as §2

[9] = system: DIGSA; experiment: Pre-emergence action at 320 g/ha against DIGSA; format: in vivo, Digitaria sanguinalis; details: visual scoring after about 3 weeks vs untreated controls; for pest or weed control at 320 g/ha: Digitaria sanguinalis, 504 h
How it was run: as §2

[10] = system: SETVI; experiment: Pre-emergence action at 320 g/ha against SETVI; format: in vivo, Setaria viridis; details: visual scoring after about 3 weeks vs untreated controls; for pest or weed control at 320 g/ha: Setaria viridis, 504 h
How it was run: as §2

[11] = system: AMARE; experiment: Pre-emergence action at 320 g/ha against AMARE; format: in vivo, Amaranthus retroflexus; details: visual scoring after about 3 weeks vs untreated controls; for pest or weed control at 320 g/ha: Amaranthus retroflexus, 504 h
How it was run: as §2

[12] = system: POLCO; experiment: Pre-emergence action at 320 g/ha against POLCO; format: in vivo, Fallopia convolvulus (Polygonum convolvulus); details: visual scoring after about 3 weeks vs untreated controls; for pest or weed control at 320 g/ha: Fallopia convolvulus, 504 h
How it was run: as §2

[13] = system: ECHCG; experiment: Post-emergence action against ECHCG, 1.28 kg/ha; format: in vivo, Echinochloa crus-galli; details: dosage 1280 g/ha, visual rating about 3 weeks after treatment vs untreated controls; for pest or weed control at 1280 g/ha: Echinochloa crus-galli, 504 h
How it was run: (§3)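 Herbicidal action is estimated by eye after about three weeks under optimum greenhouse conditions, on a 0–100% scale against untreated plants. Compounds are applied post-emergence to one-leaf-stage weeds as aqueous WP or EC preparations containing 0.5% additive, sprayed at 600 L/ha.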

[14] = system: POAAN; experiment: Post-emergence action against POAAN, 1.28 kg/ha; format: in vivo, Poa annua; details: dosage 1280 g/ha, visual rating about 3 weeks after treatment vs untreated controls; for pest or weed control at 1280 g/ha: Poa annua, 504 h
How it was run: as §3

Structure (SMILES)	pest or weed control at 1280 g/ha [1]	pest or weed control at 1280 g/ha [2]	pest or weed control at 1280 g/ha [3]	pest or weed control at 1280 g/ha [4]	pest or weed control at 1280 g/ha [5]	pest or weed control at 1280 g/ha [6]	pest or weed control at 320 g/ha [7]	pest or weed control at 320 g/ha [8]	pest or weed control at 320 g/ha [9]	pest or weed control at 320 g/ha [10]	pest or weed control at 320 g/ha [11]	pest or weed control at 320 g/ha [12]	pest or weed control at 1280 g/ha [13]	pest or weed control at 1280 g/ha [14]	Pre-emergence action against ECHCG [1]	Pre-emergence action against POAAN [2]	Pre-emergence action against SETVI [3]	Pre-emergence action against AMARE [4]	Pre-emergence action against MATIN [5]	Pre-emergence action against STEME [6]	other results
COC(=O)COc1nn(-c2ccccc2F)c(-c2cncnc2)c1Br [VI-004, Methyl {[4-bromo-1-(2-fluorophenyl)-5-(pyrimidin-5-yl)-1H-pyrazol-3-yl]oxy}acetate]	100%	100%	100%	100%	100%	100%	100%	90%	100%	90%	100%	90%	90%	100%	–	–	–	–	–	–	–
O=C(O)COc1nn(-c2ccccc2F)c(-c2cncnc2)c1Br [VI-007, {[4-Bromo-1-(2-fluorophenyl)-5-(pyrimidin-5-yl)-1H-pyrazol-3-yl]oxy}acetic Acid]	100%	100%	100%	100%	100%	100%	80%	90%	100%	100%	100%	100%	100%	100%	–	–	–	–	–	–	–
COC(=O)[C@@H](C)Oc1nn(-c2ccccc2F)c(-c2cncnc2)c1Br [VI-011, Methyl (2R)-2-{[4-bromo-1-(2-fluorophenyl)-5-(pyrimidin-5-yl)-1H-pyrazol-3-yl]oxy}propanoate]	100%	100%	100%	100%	90%	100%	100%	80%	100%	100%	100%	80%	100%	100%	–	–	–	–	–	–	–
C[C@@H](Oc1nn(-c2ccccc2F)c(-c2cncnc2)c1Br)C(=O)O [VI-012]	–	–	–	–	–	–	–	–	–	–	–	–	–	–	90%	100%	100%	100%	90%	100%	Pre-emergence action at 320 g/ha against ALOMY in % [7]: 90%; Pre-emergence action against AVEFA in % [8]: 80%; Pre-emergence action against DIGSA in % [9]: 100%; Pre-emergence action against SETVI in % [10]: 100%; Pre-emergence action against AMARE in % [11]: 100%; Pre-emergence action against POLCO in % [12]: 80%; Post-emergence action against ECHCG [13]: 100%; Post-emergence action against POAAN [14]: 100%
COC(=O)COc1nn(-c2ccc(F)cc2)c(-c2ccc(F)nc2)c1Br [VII-002]	–	–	–	–	–	–	–	–	–	–	–	–	–	–	100%	100%	100%	100%	90%	100%	Pre-emergence action at 320 g/ha against ALOMY in % [7]: 90%; Pre-emergence action against AVEFA in % [8]: 80%; Pre-emergence action against DIGSA in % [9]: 100%; Pre-emergence action against SETVI in % [10]: 90%; Pre-emergence action against AMARE in % [11]: 100%; Pre-emergence action against POLCO in % [12]: 100%; Post-emergence action against ECHCG [13]: 90%; Post-emergence action against POAAN [14]: 100%
